Test results published in the NIST ThermoML archive (doi:10.1016/j.tca.2011.11.025).

Test: excess molar enthalpy (molar enthalpy of mixing); xn = mol fraction of the nth substance listed
Conditions: 308.15 K, 101 kPa, Liquid, 2-drop calorimeter

Cc1cccc(C)c1 [1,3-dimethylbenzene] + C1COCCO1
Conditions	excess molar enthalpy [kcal/mol]
x2 = 0.0638	0.0149
x2 = 0.1239	0.0289
x2 = 0.1845	0.0429
x2 = 0.223	0.0496
x2 = 0.2742	0.0593
x2 = 0.3357	0.0675
x2 = 0.4212	0.0759
x2 = 0.4781	0.0796
x2 = 0.5516	0.0797
x2 = 0.6212	0.0748
x2 = 0.6836	0.0687
x2 = 0.7583	0.0576
x2 = 0.7797	0.0534
x2 = 0.8183	0.0467
x2 = 0.8884	0.0298
x2 = 0.9481	0.0144

Cc1ccc(C)cc1 [1,4-dimethylbenzene] + C1COCCO1
Conditions	excess molar enthalpy [kcal/mol]
x2 = 0.0757	0.0122
x2 = 0.1355	0.0244
x2 = 0.1984	0.0362
x2 = 0.2656	0.0481
x2 = 0.3025	0.0538
x2 = 0.3648	0.062
x2 = 0.4154	0.0674
x2 = 0.4759	0.0705
x2 = 0.5524	0.0717
x2 = 0.6251	0.0687
x2 = 0.6956	0.0625
x2 = 0.7415	0.0563
x2 = 0.7867	0.0487
x2 = 0.8521	0.0355
x2 = 0.8953	0.026
x2 = 0.9326	0.0168
